According to patent publication EP4792818A1, “COMPOUND SUITABLE FOR EXTERNAL USE, AND PHARMACEUTICAL COMPOSITION” (EnKang Pharmaceuticals (Guangzhou), Ltd., priority 2023, dated 2025):
Like-named read-outs stand apart in the source and are kept apart here.

How the values were obtained:
COLO-16 cells [1] = test system: COLO-16 cells
Experimental: (§1) The experimental procedures were as follows: The cells were subcultured in a complete medium containing 10% FBS in an incubator at 37 °C with 5% CO2 and saturated humidity. The cell density was adjusted to (3-5) × 10^4 cells/mL using a complete medium containing 10% FBS. The cell suspension was added to the wells of a 96-well culture plate at 100 µL/well, and the plate was incubated in an incubator at 37 °C with 5% CO2 and saturated humidity overnight (for about 16-24 hrs). Various dose groups of the test substance and a solvent control group were set. On the next day, the original culture medium was discarded. Subsequently, 20% FBS-containing complete medium was added at 100 µL/well, and the test substance or solvent in FBS-free medium was then added at 100 µL/well, resulting in a final FBS concentration of 10%. Meanwhile, a negative control group was set: each well received 100 µL of 20% FBS-containing complete medium + 100 µL of incomplete medium containing cells, resulting in a final FBS concentration of 10%. A zero adjustment group (background) was also set: 200 µL of the culture medium alone (100 µL of 20% FBS-containing complete medium + 100 µL of incomplete medium), without drugs and cells. For each concentration group, four replicate wells were set.
(§2) After incubation for 48 hrs under the experimental conditions, the supernatant was discarded, and 110 µL of CCK-8 working solution (100 µL of 10% FBS-containing complete medium and 10 µL of CCK-8 solution) were added to each well. The cells were further incubated for 4 hrs, and the optical density value at a wavelength of 450 nm (A450) was then measured for each well using a microplate reader. The average value for the wells of each treatment group (T) was compared with the average value for the negative control wells (C). The percent inhibition rate of each concentration group was calculated using the following formula: [Inhibition rate = (1 - T/C) × 100%], and the half-maximal inhibitory concentration (IC50) was calculated.

SCL-1 cells [2] = test system: SCL-1 cells
Experimental: as §1, §2

A431 cells = test system: A431 cells
Experimental: as §1, §2

[3] = for Labeled amount (%) / Related substances (%) Impurity A / Related substances (%) Impurity B / Related substances (%) Impurity C / Related substances (%) Impurity D / Related substances (%) Impurity E / Related substances (%) Impurity F / Related substances (%) RRT0.73 / Related substances (%) RRT1.10 / Related substances (%) RRT2.18 / Related substances (%) Total impurities: mixed with CMC-Na 1:5
COLO-16 cells [4] = settings: COLO-16 tumor-bearing nude mice, 21 days
Experimental: (§3) Quarantine-qualified male BALB/c-nu nude mice weighing 13.7-21.1 g were each inoculated with 0.2 mL of COLO-16 cells in logarithmic growth phase at 6.7 x 10^6 cells/mL in the right axilla. […] The drug was kept in contact with the skin for 4 hrs per administration, and the treatment was given to each group for three consecutive weeks. During the treatment period, the long diameter (a) and short diameter (b) of the tumors were measured using a vernier caliper every 3 days. Then, the tumor volume (TV), relative tumor volume (RTV), and relative tumor proliferation rate (T/C, %) were calculated. After the final administration, the tumor tissues were dissected out and weighed to calculate the tumor growth inhibition rates.

SCL-1 cells [5] = settings: SCL-1 tumor-bearing nude mice, 21 days
Experimental: as §3, with “13.4-20.5” for “13.7-21.1”, “SCL-1” for “COLO-16”, “3” for “6.7”, “cells/mL (with Matrigel and cell suspension mixed in a ratio of 1:2)” for “cells/mL”

[6] = topical gel; for plasma drug concentrations above the LLOQ: 0.008-0.06 mg/cm^2, LLOQ 0.02 ng/mL
[7] = 20 °C
[8] = test system: TE.354.T cells (human cutaneous basal cell carcinoma)
Experimental: The experimental procedures were as follows: The cells were subcultured in a complete medium containing 10% FBS in an incubator at 37 °C with 5% CO2 and saturated humidity. The cell density was adjusted to (3-5) × 10^4 cells/mL using a complete medium containing 10% FBS. The cell suspension was added to the wells of a 96-well culture plate at 100 µL/well, and the plate was incubated in an incubator at 37 °C with 5% CO2 and saturated humidity overnight (for about 16-24 hrs). Various dose groups of the test substance and a solvent control group were set. On the next day, the original culture medium was discarded. Subsequently, 20% FBS-containing complete medium was added at 100 µL/well, and the test substance or solvent in FBS-free medium was then added at 100 µL/well, resulting in a final FBS concentration of 10%. Meanwhile, a negative control group was set: each well received 100 µL of 20% FBS-containing complete medium + 100 µL of incomplete medium containing cells, resulting in a final FBS concentration of 10%. A zero adjustment group (background) was also set: 200 µL of the culture medium alone (100 µL of 20% FBS-containing complete medium + 100 µL of incomplete medium), without drugs and cells. For each concentration group, four replicate wells were set. […]

[9] = test system: human liver cancer HepG2 cells; settings: documented in CN 104736157 A; cited from earlier work
[10] = High humidity for 10 days (RH 90%±5%)
[11] = High temperature for 10 days (60 °C±2 °C)

CO[C@H]1[C@H](O)[C@H](O[C@H]2CC[C@@]3(C)[C@H](CC[C@@H]4[C@@H]3CC[C@]3(C)[C@@H](C5=CC(=O)OC5)CC[C@]43O)C2)O[C@@H](C)[C@@H]1O [17β-neriifolin]
growth inhibitory effects (COLO-16 cells [1]): strong growth inhibitory effects
growth inhibitory effects (SCL-1 cells [2]): strong growth inhibitory effects
growth inhibitory effects (A431 cells): strong growth inhibitory effects
impact of high temperature, high humidity, and illumination on the related substances and drug content ([3]; combined with sodium carboxymethyl cellulose 1:5, 10 days): no impact
stability of the combination with sodium carboxymethyl cellulose compared with the combination with Carbomer ([3]; mass ratio 1:5, 10 days, high temperature, high humidity, illumination): significantly superior
Labeled amount (%) ([3]; 0 days): 99.56%
Related substances (%) Impurity A ([3]; 0 days): 0.17%
Related substances (%) Impurity B ([3]; 0 days): 0.36%
Related substances (%) Impurity C ([3]; 0 days): 0.25%
Related substances (%) Impurity D ([3]; 0 days): 0.13%
Related substances (%) Impurity E ([3]; 0 days): 0.15%
Related substances (%) Impurity F ([3]; 0 days): 0.14%
Related substances (%) RRT0.73 ([3]; 0 days): 0.05%
Related substances (%) RRT1.10 ([3]; 0 days): 0.04%
Related substances (%) RRT2.18 ([3]; 0 days): 0.03%
Related substances (%) Total impurities ([3]; 0 days): 1.32%
Labeled amount (%) [3, 10]: 99.42%
Related substances (%) Impurity A [3, 10]: 0.17%
Related substances (%) Impurity B [3, 10]: 0.36%
Related substances (%) Impurity C [3, 10]: 0.25%
Related substances (%) Impurity D [3, 10]: 0.13%
Related substances (%) Impurity E [3, 10]: 0.15%
Related substances (%) Impurity F [3, 10]: 0.14%
Related substances (%) RRT0.73 [3, 10]: 0.05%
Related substances (%) RRT1.10 [3, 10]: 0.04%
Related substances (%) RRT2.18 [3, 10]: 0.03%
Related substances (%) Total impurities [3, 10]: 1.32%
Labeled amount (%) [3, 11]: 100.95%
Related substances (%) Impurity A [3, 11]: 0.17%
Related substances (%) Impurity B [3, 11]: 0.36%
Related substances (%) Impurity C [3, 11]: 0.25%
Related substances (%) Impurity D [3, 11]: 0.13%
Related substances (%) Impurity E [3, 11]: 0.15%
Related substances (%) Impurity F [3, 11]: 0.14%
Related substances (%) RRT0.73 [3, 11]: 0.05%
Related substances (%) RRT1.10 [3, 11]: 0.04%
Related substances (%) RRT2.18 [3, 11]: 0.03%
Related substances (%) Total impurities [3, 11]: 1.32%
Labeled amount (%) ([3]; Strong light for 10 days): 99.96%
Related substances (%) Impurity A ([3]; Strong light for 10 days): 0.17%
Related substances (%) Impurity B ([3]; Strong light for 10 days): 0.36%
Related substances (%) Impurity C ([3]; Strong light for 10 days): 0.25%
Related substances (%) Impurity D ([3]; Strong light for 10 days): 0.13%
Related substances (%) Impurity E ([3]; Strong light for 10 days): 0.15%
Related substances (%) Impurity F ([3]; Strong light for 10 days): 0.14%
Related substances (%) RRT0.73 ([3]; Strong light for 10 days): 0.05%
Related substances (%) RRT1.10 ([3]; Strong light for 10 days): 0.04%
Related substances (%) RRT2.18 ([3]; Strong light for 10 days): 0.03%
Related substances (%) Total impurities ([3]; Strong light for 10 days): 1.32%
anti-tumor effect compared with Imiquimod cream (50 mg/g) (COLO-16 cells [4]): significantly superior to that of Imiquimod cream
anti-tumor effect compared with Imiquimod cream (50 mg/g) (SCL-1 cells [5]): significantly superior to that of Imiquimod cream
plasma drug concentrations above the LLOQ ([6]; four Australian subjects): 0.021 to 0.101 ng/mL
plasma drug concentrations above the LLOQ ([6]; seven Chinese subjects): 0.022 to 0.106 ng/mL
dose dependence of systemic exposure ([6]; 0.008-0.06 mg/cm^2 dose range): No dose-dependent increase
Dissolution behavior ([7]; Ethanol concentration 20 %, sample concentration 8 mg/g): dissolved
Dissolution behavior ([7]; Ethanol concentration 20 %, sample concentration 8 mg/g, listed as 17β-Neriifolin): Dissolved
Dissolution behavior ([7]; Ethanol concentration 45 %, sample concentration 20 mg/g): dissolved
Dissolution behavior ([7]; Ethanol concentration 45 %, sample concentration 20 mg/g, listed as 17β-Neriifolin): Dissolved
Dissolution behavior ([7]; Ethanol concentration 50 %, sample concentration 24 mg/g): Dissolved
Dissolution behavior ([7]; Ethanol concentration 66 %, sample concentration 32 mg/g): Dissolved
Dissolution behavior ([7]; Ethanol concentration 75 %, sample concentration 40 mg/g): Dissolved
Dissolution behavior ([7]; Ethanol concentration 100 %, sample concentration 50 mg/g): Dissolved
growth inhibitory effects [8]: strong growth inhibitory effects
cell cycle arrest and apoptosis [9]: induce cell cycle arrest and apoptosis
